Measured values taken from PMC7618036, “An oral heme oxygenase inhibitor targets immunosuppressive perivascular macrophages in preclinical models of cancer” (Science translational medicine, 2025).

Tested on: MMTV-PyMT mice
Experiment: Toxicity evaluation of MMTV-PyMT mice after 21 days of treatment
Assay type: in vivo, mouse
Conditions: KCL-HO-1i p.o. and/or gemcitabine i.p.
Procedure: (D-G) The MMTV-PyMT mice in (B) were evaluated for evidence of toxicity, including weight change from treatment initiation (D), end of treatment (day 21) plasma ratio of AST:ALT enzymes (E), blood circulating immune cells assessed using flow cytometry (F) and pathology assessment of inflammatory cell infiltrate in the lungs alongside an additional cohort or WT non-tumor bearing mice given dual treatment for 21 days and then assessed at treatment cessation or 30 days after treatment cessation (G). Image in panel (A) was created using BioRender. Bar charts show the mean, error bars SD, and the dots show individual data points from individual tumors and mice. Line charts display the mean and SEM. Gemc.; gemcitabine. * P<0.05, ** P<0.01.
Tissue sections (3µm) were cut from FFPE tissues from the brain, lung, heart, kidney, and liver of treated animals and mounted onto Plus^+ Frost slides (Solmedia). […] Tissue sections were initially examined unblinded and then re-evaluated blinded to confirm the significant findings ([77]). Findings in the tissue were scored using a non-linear semiquantitative grading system from 0 to 5 where 0 = no significant change and 5 = whole organ or tissue affected ([78]). Where grading was not appropriate, findings were scored ‘present’ (P) if seen. In addition, an approximate number of lung metastases was recorded in parentheses after P if present ([78]). […]

Nc1ccn([C@@H]2O[C@H](CO)[C@@H](O)C2(F)F)c(=O)n1 [gemcitabine]
immune cell composition of the blood: unaffected
